Results: patent US20140066362A1, “METHOD FOR TREATING INFECTIONS BY TARGETING MICROBIAL H2S-PRODUCING ENZYMES” (NEW YORK UNIVERSITY, priority 2011, published 2014)
Where two headings read alike, the source gives them in different places.

What was measured:
Type in all cases: cell-based
E. faecium A2373 = experiment: MIC of antibiotics with or without PAG/AOAA; settings: for MIC: Enterococcus faecium
Procedure: (§1) E. faecalis (ATCC 29212) cultures were prepared at initial inoculums of ˜5×10^5 CFU/ml in Mueller-Hinton II Broth (cation-adjusted). Aliquots of 190 μl were dispensed to each well of a fresh set of plates, and 10 μl of an antibiotic solution (levofloxacin, meropenem, gentamicin, piperacillin, linezolid, cefepime, daptomycin, vancomycin, or chloramphemicol) were transferred to the corresponding wells in each bacterial plate (FIG. 13). For each antibiotic, the starting concentration was 2×MIC (minimum inhibitory concentration) with serial ½ dilutions. Two sets of dilutions were prepared, and to one of them 0.1 mM AOAA was added. The resulting plates were kept at 37° C. and 85% humidity for 20 hours. All nine antibiotics tested were potentiated by AOAA, with respective MICs dropped from 8-fold to 32-fold (FIG. 13).
(§2) Minimum inhibitory concentration (MIC) determination was conducted as described in Example 7, above. To assess antibiotic potentiation by AOAA and PAG, MIC was determined for nine antibiotics (levofloxacin, meropenem, gentamicin, piperacillin, linezolid, cefepime, daptomycin, vancomycin, and chloramphemicol) and four bacterial strains (E. faecium (A2373), E. faecalis ([…]), S. pneumoniae (ATCC 49619), and P. aeruginosa (PAO1)) in the presence of antibiotic alone, 1 mM PAG, 0.1 mM AOAA, or 0.5 mM PAG+0.05 mM AOAA. The smaller the MIC value, the stronger the effect of antibiotic potentiation.

E. faecalis ATCC29212 = experiment: MIC of antibiotics with or without PAG/AOAA; settings: for MIC: Enterococcus faecalis
Procedure: Bacterial cultures were prepared at initial inoculums of ˜5×10^5 CFU/ml, and aliquots of 190 μl per well were dispensed. Ten μl of the indicated antibiotic solutions were added to each well. The starting concentration for each antibiotic solution was 2×MIC, with serial ½ dilutions. Two sets of dilutions were prepared, and 0.1 mM AOAA was added to one set. The plates were kept at 37° C. and 85% humidity for 20 hours.
as §1, §2

S. pneumoniae ATCC49619 = experiment: MIC of antibiotics with or without PAG/AOAA; settings: for MIC: Streptococcus pneumoniae
Procedure: as §2

P. aeruginosa PAO1 = experiment: MIC of antibiotics with or without PAG/AOAA; settings: for MIC: Pseudomonas aeruginosa
Procedure: as §2

[1] = tested on: E. coli ΔsseA (3MST-deficient) strain; settings: Table 1; relative values of growth inhibition (negative numbers), ΔsseA vs wt E. coli
[2] = A2373, antibiotic alone, read-out: Minimum inhibitory concentration
[3] = in the presence of 0.5 mM PAG + 0.05 mM AOAA
[4] = ATCC29212, antibiotic alone, read-out: Minimum inhibitory concentration
[5] = ATCC49619, antibiotic alone, read-out: Minimum inhibitory concentration
[6] = PAO1, antibiotic alone, read-out: Minimum inhibitory concentration

Compound | MIC (E. faecium A2373; [2]) | Minimum inhibitory concentration (E. faecium A2373; in the presence of 0.1 mM AOAA) | Minimum inhibitory concentration (E. faecium A2373; [3]) | Minimum inhibitory concentration (E. faecium A2373; in the presence of 1 mM PAG) | MIC (E. faecalis ATCC29212; [4]) | Minimum inhibitory concentration (E. faecalis ATCC29212; in the presence of 0.1 mM AOAA) | Minimum inhibitory concentration (E. faecalis ATCC29212; [3]) | Minimum inhibitory concentration (E. faecalis ATCC29212; in the presence of 1 mM PAG) | MIC (S. pneumoniae ATCC49619; [5]) | Minimum inhibitory concentration (S. pneumoniae ATCC49619; in the presence of 0.1 mM AOAA) | Minimum inhibitory concentration (S. pneumoniae ATCC49619; [3]) | Minimum inhibitory concentration (S. pneumoniae ATCC49619; in the presence of 1 mM PAG) | MIC (P. aeruginosa PAO1; [6]) | Minimum inhibitory concentration (P. aeruginosa PAO1; in the presence of 0.1 mM AOAA) | Minimum inhibitory concentration (P. aeruginosa PAO1; [3]) | Minimum inhibitory concentration (P. aeruginosa PAO1; in the presence of 1 mM PAG) | Minimum inhibitory concentration (E. faecium A2373; antibiotic alone) | Minimum inhibitory concentration (E. faecalis ATCC29212; antibiotic alone) | Minimum inhibitory concentration (S. pneumoniae ATCC49619; antibiotic alone) | Minimum inhibitory concentration (P. aeruginosa PAO1; antibiotic alone) | also measured
CC(=O)NC[C@H]1CN(c2ccc(N3CCOCC3)c(F)c2)C(=O)O1 [Linezold, linezolid] | 4 µg/mL | 2 µg/mL | 4 µg/mL | 4 µg/mL | 4 µg/mL | 0.25 µg/mL | 2 µg/mL | 4 µg/mL | 2 µg/mL | 0.5 µg/mL | 1 µg/mL | 2 µg/mL | > 64 µg/mL | >64 µg/mL | >64 µg/mL | >64 µg/mL |  |  |  |  | 
CO/N=C(\C(=O)N[C@@H]1C(=O)N2C(C(=O)[O-])=C(C[N+]3(C)CCCC3)CS[C@H]12)c1csc(N)n1 [Cetepine, cefepime] |  | >64 µg/mL | >64 µg/mL | >64 µg/mL |  | 2 µg/mL | 8 µg/mL | 32 µg/mL |  | 0.125 µg/mL | 0.125 µg/mL | 0.125 µg/mL |  | 2 µg/mL | 1 µg/mL | 2 µg/mL | >64 µg/mL | 32 µg/mL | 0.125 µg/mL | 2 µg/mL | 
C[C@@H](O)[C@H]1C(=O)N2C(C(=O)O)=C(S[C@@H]3CN[C@H](C(=O)N(C)C)C3)[C@H](C)[C@H]12 [Meropenom, meropenem] |  | 6 µg/mL | >64 µg/mL | >64 µg/mL |  | 0.25 µg/mL | 1 µg/mL | 4 µg/mL |  | 0.063 µg/mL | 0.063 µg/mL | 0.063 µg/mL |  | 0.5 µg/mL | 0.5 µg/mL | 0.5 µg/mL | >64 µg/mL | 4 µg/mL | 0.125 µg/mL | 1 µg/mL | 
CCCCCCCCCC(=O)N[C@@H](Cc1c[nH]c2ccccc12)C(=O)N[C@H](CC(N)=O)C(=O)N[C@@H](CC(=O)O)C(=O)N[C@@H]1C(=O)NCC(=O)N[C@@H](CCCN)C(=O)N[C@@H](CC(=O)O)C(=O)N[C@H](C)C(=O)N[C@@H](CC(=O)O)C(=O)NCC(=O)N[C@H](CO)C(=O)N[C@@H]([C@H](C)CC(=O)O)C(=O)N[C@@H](CC(=O)c2ccccc2N)C(=O)O[C@@H]1C [Daptomycin, daptomycin] | 4 µg/mL | ≦1 μg/ml | 4 µg/mL | 2 µg/mL | 2 µg/mL | ≦0.06 μg/ml | 1 µg/mL | 2 µg/mL | 0.125 µg/mL | 0.063 µg/mL | 0.125 µg/mL | 0.125 µg/mL | > 64 µg/mL | >64 µg/mL | >64 µg/mL | >64 µg/mL |  |  |  |  | 
CCN1CCN(C(=O)N[C@@H](C(=O)N[C@@H]2C(=O)N3[C@@H]2SC(C)(C)[C@@H]3C(=O)O)c2ccccc2)C(=O)C1=O [Piperacilin, piperacillin] |  | 6 µg/mL | >64 µg/mL | >64 µg/mL |  | 0.25 µg/mL | 1 µg/mL | 2 µg/mL |  | 0.25 µg/mL | 0.5 µg/mL | 0.5 µg/mL |  | 4 µg/mL | 4 µg/mL | 4 µg/mL | >64 µg/mL | 2 µg/mL | 0.5 µg/mL | 4 µg/mL | 
gentamicin |  | >64 µg/mL | >64 µg/mL | >64 µg/mL |  | 1 µg/mL | 4 µg/mL | 32 µg/mL |  | 8 µg/mL | 16 µg/mL | 32 µg/mL |  | 2 µg/mL | 4 µg/mL | 2 µg/mL | >64 µg/mL | 32 µg/mL | 32 µg/mL | 2 µg/mL | 
C[C@H]1COc2c(N3CCN(C)CC3)c(F)cc3c(=O)c(C(=O)O)cn1c23 [Levoflaxacin, levofloxacin] | 2 µg/mL | 2 µg/mL | 2 µg/mL | 2 µg/mL | 1 µg/mL | 0.125 µg/mL | 0.5 µg/mL | 1 µg/mL | 2 µg/mL | 0.5 µg/mL | 0.5 µg/mL | 1 µg/mL | 0.5 µg/mL | 0.5 µg/mL | 0.5 µg/mL | 0.5 µg/mL |  |  |  |  | 
CN[C@H](CC(C)C)C(=O)N[C@H]1C(=O)N[C@@H](CC(N)=O)C(=O)N[C@H]2C(=O)N[C@H]3C(=O)N[C@H](C(=O)N[C@H](C(=O)O)c4cc(O)cc(O)c4-c4cc3ccc4O)[C@H](O)c3ccc(c(Cl)c3)Oc3cc2cc(c3O[C@@H]2O[C@H](CO)[C@@H](O)[C@H](O)[C@H]2O[C@H]2C[C@](C)(N)[C@H](O)[C@H](C)O2)Oc2ccc(cc2Cl)[C@H]1O [Vancomycin] |  | 2 µg/mL | >64 µg/mL | >64 µg/mL |  | 1 µg/mL | 2 µg/mL | 2 µg/mL |  | 0.125 µg/mL | 0.125 µg/mL | 0.125 µg/mL |  | >64 µg/mL | >64 µg/mL | >64 µg/mL |  |  |  |  | ΔsseA inhibition of growth [1]: −198; MIC (E. faecium A2373; A2373, read-out: Minimum inhibitory concentration): > 64 µg/mL; MIC (E. faecalis ATCC29212; ATCC29212, read-out: Minimum inhibitory concentration): 2 µg/mL; MIC (S. pneumoniae ATCC49619; ATCC49619, read-out: Minimum inhibitory concentration): 0.125 µg/mL; MIC (P. aeruginosa PAO1; PAO1, read-out: Minimum inhibitory concentration): > 64 µg/mL
CC(=O)OCC1=C(C(=O)O)N2C(=O)[C@@H](NC(=O)Cc3cccs3)[C@H]2SC1 [Cephalothin] |  |  |  |  |  |  |  |  |  |  |  |  |  |  |  |  |  |  |  |  | ΔsseA inhibition of growth [1]: −160
CC(C)c1nc2nc(N)nc(N)c2nc1C(C)C [2,4-Diamino-6,7-diisopropylpteridine] |  |  |  |  |  |  |  |  |  |  |  |  |  |  |  |  |  |  |  |  | ΔsseA inhibition of growth [1]: −429
